Laboratory results published in PubChem BioAssay (NCI).
Several values for one entry are separate records, joined by “and”; a condition that tells them apart may be missing. Equal values may be shown once.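 How tested: cells in 96-well plates exposed to compound for 48 hours at five concentrations. GI50 = concentration required for 50% inhibition of growth. At the TGI there is no net growth.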

How the values were obtained:
Test in all cases: inhibition of tumour cell growth, NCI panel, 48 h
[1] = system: CAKI-1 renal
[2] = system: HCT-15 colon
[3] = system: HS 578T breast
[4] = system: K-562 leukemia
[5] = system: RPMI-8226 leukemia
[6] = system: SN12C renal
[7] = system: SW-620 colon
[8] = system: UACC-62 melanoma
[9] = system: HCC-2998 colon
[10] = system: RXF 393 renal

Structure (SMILES) | GI50 [1] | TGI [1] | GI50 [2] | TGI [2] | GI50 [3] | TGI [3] | GI50 [4] | TGI [4] | GI50 [5] | TGI [5] | GI50 [6] | TGI [6] | GI50 [7] | TGI [7] | GI50 [8] | TGI [8] | TGI [9] | TGI [10] | GI50 [9]
COc1ccccc1NC(=O)c1sc2ncn(CCOc3ccccc3)c(=O)c2c1C | 2420 nM | > 50 µM | 431 nM | 15.1 µM | 1370 nM | 4.1 µM | 761 nM | 4.39 µM | 9.2 µM | > 50 µM | 17.2 µM | > 50 µM | 2330 nM | > 50 µM | 2040 nM | > 50 µM | – | – | –
CCNC(=O)O/N=C1\CCC2[C@@H]3CC=C4C[C@@H](OC(=O)NCC)CC[C@]4(C)C3CC[C@]12C (stereo partly specified) | – | – | – | 12.5 µM | – | – | – | 4 µM | – | 5.69 µM | – | 11.9 µM | – | 16.7 µM | – | 10.2 µM | 17.7 µM | 11.6 µM | –
CCOC(=O)C(Oc1ccc(OC)c2c1C(=O)CCC2)c1ccccc1 (stereo unspecified) | – | > 100 µM | – | > 100 µM | – | – | – | > 100 µM | – | > 100 µM | – | > 100 µM | – | > 100 µM | – | > 100 µM | > 100 µM | – | –
NP1(Oc2ccc(F)cc2)=NP(N)(Oc2ccc(F)cc2)=NP(Oc2ccc(F)cc2)(Oc2ccc(F)cc2)=N1 (stereo unspecified) | – | 21.8 µM | – | 14.6 µM | – | 17.7 µM | – | – | – | 18.3 µM | – | 18.5 µM | – | 24.8 µM | – | – | 8.4 µM | – | –
O=C(O)CCCCCNCc1cc2cc3c(cc2c2cc(OCc4ccccc4)ccc12)OCO3 | 3170 nM | 12 µM | 2030 nM | 5.88 µM | – | – | – | – | – | – | 5.42 µM | 19.8 µM | 1500 nM | 3.1 µM | 1800 nM | 3.44 µM | 3.37 µM | – | 1710 nM
CC(=O)O[C@H]1CSC[C@@H](OC(C)=O)C1[N+](=O)[O-] (stereo partly specified) | – | > 100 µM | – | 88.9 µM | – | – | – | > 100 µM | – | 59.5 µM | – | > 100 µM | – | 74.3 µM | – | > 100 µM | > 100 µM | 36.1 µM | –
Cc1ccccc1NC(=O)C(=O)C(C(=O)c1ccccc1F)C1OC(=O)c2ccccc21 (stereo unspecified) | – | 50 µM | – | 79.5 µM | – | – | – | > 100 µM | – | 48.3 µM | – | 71.2 µM | – | > 100 µM | – | – | 24.8 µM | 24.6 µM | –
CCCCCCNC(=O)CCN(C(=O)O)S(=O)(=O)c1ccc(NC(=O)c2ccccc2)cc1 | – | > 100 µM | – | > 58.4 µM | – | – | – | > 71.1 µM | – | 54.4 µM | – | > 100 µM | – | 30.6 µM | – | > 77.7 µM | > 100 µM | > 100 µM | –
CN(N=O)c1ccc(/C=C/c2ccnc3ccccc23)cc1 | – | > 100 µM | – | > 100 µM | – | > 100 µM | – | > 100 µM | – | – | – | > 100 µM | – | > 100 µM | – | > 100 µM | – | > 100 µM | –
Nc1ncc(CN2CCCC2)c(-c2ccccc2O)n1 | – | > 750 µM | – | > 750 µM | – | – | > 750000 nM | – | – | > 750 µM | – | > 750 µM | – | > 750 µM | – | > 750 µM | > 750 µM | > 750 µM | –
CN(C(=O)C12C3C4C1C1C2C3C41C#N)C(C)(C)C (stereo unspecified) | – | > 100 µM | – | – | – | – | – | > 100 µM | – | > 100 µM | – | > 100 µM | – | > 100 µM | – | > 100 µM | > 100 µM | – | –
N/N=C1/C(=O)N(c2ccc(Cl)cc2)C(=O)C(=O)C1c1nc2ccccc2s1 (stereo unspecified) | – | > 100 µM | – | > 100 µM | – | – | – | > 100 µM | – | > 100 µM | – | > 100 µM | – | > 100 µM | – | > 100 µM | > 100 µM | > 100 µM | –
N#Cc1sc2nc3c(c(-c4ccccc4)c2c1N)CCCC3 | – | > 100 µM | – | > 100 µM | – | – | – | > 100 µM | – | > 100 µM | – | > 100 µM | – | > 100 µM | – | > 100 µM | > 100 µM | > 100 µM | –
CC1=C(C(=S)Nc2ccc(Cl)c(C(=O)OC(C)C)c2)SCCO1 | – | 48.5 µM | – | 44.9 µM | – | 75.1 µM | – | 43.6 µM | – | 63.9 µM | – | 32.9 µM | – | 44.7 µM | – | 32.6 µM | 31.2 µM | – | –
CN(C)NC(=O)NC12CC3CC(CC(C3)C1)C2 | – | > 100 µM | – | > 100 µM | – | – | – | > 100 µM | – | > 100 µM | – | > 100 µM | – | > 100 µM | – | > 100 µM | – | > 10 µM | –
COc1cc([C@@H]2c3cc4c(cc3[C@@H](OC3OC5COC(C)OC5C(O)C3O)[C@H]3COC(=O)[C@H]23)OCO4)cc(OC)c1O (stereo partly specified) | – | 31.4 µM and 77.1 µM and 49.2 µM | – | 285 µM and 169 µM | 2860 nM and 5720 nM | – | – | – | 14.8 µM and 2.41 µM | > 71.7 µM and 68 µM | – | – | – | 54.6 µM and 159 µM | – | – | – | – | –
Cc1nc2ccccc2c(=O)n1/N=C(\N=Nc1cc(Cl)ccc1Cl)c1ccc(N(C)C)cc1 | – | 79.8 µM | – | > 100 µM | – | – | – | > 100 µM | – | > 100 µM | – | > 100 µM | – | > 100 µM | – | > 100 µM | – | 81.8 µM | –
CCOC(=O)C(=O)CC(=O)C(Br)C(Br)c1ccc(Cl)cc1 (stereo unspecified) | – | > 100 µM | – | > 100 µM | – | – | – | 40.8 µM | – | 51.8 µM | – | > 100 µM | – | > 100 µM | – | > 100 µM | > 100 µM | 62.6 µM | –
CSCSCC(CO)NC(=O)/C=C/c1c(C)[nH]c(=O)[nH]c1=O (stereo unspecified) | – | > 100 µM | – | > 100 µM | – | – | – | > 100 µM | – | > 100 µM | – | > 100 µM | – | > 100 µM | – | > 100 µM | > 100 µM | > 100 µM | –
NN=C1/C(=C\c2ccccc2)CCC/C1=C/c1ccccc1 | – | – | – | > 100 µM | – | – | – | 44 µM | – | 38 µM | – | > 100 µM | – | > 100 µM | – | > 100 µM | > 100 µM | > 100 µM | –
CC(C)(c1ccc(C=O)o1)c1ccc(C(C)(C)c2ccc(C=O)o2)o1 | – | > 100 µM | – | – | – | – | – | > 100 µM | – | – | – | – | – | > 100 µM | – | – | > 100 µM | > 100 µM | –
